Experimental data: patent US9988379B2, “GPR40 receptor agonist, methods of preparing the same, and pharmaceutical compositions containing the same as an active agent” (LG CHEM, LTD., priority 2012, dated 2018)

target: T1, human GPR40 (Homo sapiens, UniProt O14842); assay: Induction of Ca2+ (calcium flux assay) using human GPR40 expression cell line; type: cell-based; conditions: read-out: EC0.5
T1 construct: expressed in transfected cells; host or cells: CHO-K1
Experimental: Evaluation of the Test Compounds for Induction of Ca^2+ Using Human GPR40 Expression Cell Line
The cell line expressing human GPR40 was generated by transfection of the GPR40 expression vector into CHO-K1 cell, and used in the following calcium flux assay.
The cell line was cultured in cell-culture medium (F-12 (Invitrogen) supplemented with 10% (v/v) FBS (Fetal Bovine Serum; Invitrogen), 0.5 mg/ml Geneticin (Invitrogen) and 1% (v/v) Antibiotic-Antimycotic solution (Invitrogen)) under the condition of 5% CO2 and 37° C. For calcium flux assay, the cells were diluted with the cell-culture medium to a concentration of 5×10^5 cells/ml, and the diluted cell suspension was dispensed in amount of 100 μl/well to a 96-well transparent bottom black polystyrene cell culture plate (Corning) and then cultured for 24 hours. The following concentrations of test compounds were added to these cells, and then the changes in intracellular calcium concentration were measured by FlexStation II384 (Molecular Devices). The following solution was prepared before the measurement.
First, a buffer solution for assay was prepared for use in the manufacture of fluorescent dye solution. This buffer solution was prepared by adding 1M HEPES solution (Invitrogen) to HBSS (Hanks' Balanced Salt Solution) (Invitrogen) and then adding 1M NaOH (Nacalai Tesque) to adjust pH to 7.4. Then the fluorescent dye solution was prepared according to the manufacturer's instruction attached to Calcium 5 Assay Kit (Molecular Devices), and the final DMSO concentration was adjusted to 2%.
The fluorescent dye solution was added in an amount of 100 μl/well to supernatant of the cell culture plate cultured for 24 hours. The plate was cultured for 1 hour under the condition of 5% CO2 and 37° C. so that the fluorescent dye was inserted into the cell.
Test compounds (i.e., the compounds prepared in the Examples) dissolved in dimethyl sulfoxide (DMSO ACROS) were diluted 200-fold in the buffer solution for assay to prepare compound solutions corresponding to the respective concentrations. […] 50 μl of the prepared sample solutions was added to each well of 96-well polypropylene plates (NUNC), and thereby a compound plate was prepared. Finally, the compound plate and the cell culture plate cultured for 1 hour with the fluorescent dye were placed in FlexStation II384.
After the above pre-treatment, the change in the intracellular calcium concentration when each concentration of the test compound solutions was added at 50 μl was measured by FlexStation II^384.
Then, the relative activity values depending on the concentration of the compound were plotted using Prism 4 software (GraphPad) to calculate the EC0.5 value.

T1 sequence (O14842 whole entry): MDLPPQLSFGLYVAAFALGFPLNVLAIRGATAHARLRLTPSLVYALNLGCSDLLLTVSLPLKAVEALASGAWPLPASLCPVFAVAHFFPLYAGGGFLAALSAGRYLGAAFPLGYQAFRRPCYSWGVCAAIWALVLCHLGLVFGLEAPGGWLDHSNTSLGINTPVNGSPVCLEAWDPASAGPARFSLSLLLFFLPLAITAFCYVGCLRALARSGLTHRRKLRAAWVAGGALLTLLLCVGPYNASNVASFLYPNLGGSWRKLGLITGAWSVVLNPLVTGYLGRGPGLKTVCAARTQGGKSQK

| Compound | EC50 [µM] |
| --- | --- |
| CC#C[C@@H](CC(=O)O)c1ccc(OCc2ccc3ccn(Cc4ncccn4)c3c2C)cc1 [Example 64, (S)-3-[4-(7-methyl-1-pyrimidin-2-ylmethyl-1H-indol-6-ylmethoxy)-phenyl]-hex-4-ynoic acid] | 0.05 to 0.5 |
| CC#C[C@@H](CC(=O)O)c1ccc(OCc2ccc3cn(Cc4ccc(F)cc4)nc3c2)cc1 [Example 67, (S)-3-{4-[2-(4-fluoro-benzyl)-2H-indazol-6-ylmethoxy]-phenyl}-hex-4-ynoic acid] | 0.07 |
| CC#C[C@@H](CC(=O)O)c1ccc(OCc2ccc3cnn(Cc4ncccn4)c3c2)cc1 [Example 68, (S)-3-[4-(1-pyrimidin-2-ylmethyl-1H-indazol-6-ylmethoxy)-phenyl}-hex-4-ynoic acid] | 0.05 to 0.5 |
| CC#C[C@@H](CC(=O)O)c1ccc(OCc2ccc3cn(Cc4ncccn4)nc3c2)cc1 [Example 69, (S)-3-[4-(2-pyrimidin-2-ylmethyl-2H-indazol-6-ylmethoxy]-phenyl}-hex-4-ynoic acid] | ≥ 0.5 |
| CC#C[C@@H](CC(=O)O)c1ccc(OCc2ccc3cnn(Cc4cnccn4)c3c2)cc1 [Example 70, (S)-3-[4-(1-pyrazin-2-ylmethyl-1H-indazol-6-ylmethoxy]-phenyl}-hex-4-ynoic acid] | 0.05 to 0.5 |
| CC#C[C@@H](CC(=O)O)c1ccc(OCc2ccc3cnn(Cc4cnc(C)cn4)c3c2)cc1 [Example 73, (S)-3-{4-[1-(5-methyl-pyrazin-2-ylmethyl)-1H-indazol-6-ylmethoxy]-phenyl}-hex-4-ynoic acid] | 0.05 to 0.5 |
| CC#C[C@@H](CC(=O)O)c1ccc(OCc2ccc3cn(Cc4cnc(C)cn4)nc3c2)cc1 [Example 74, (S)-3-{4-[2-(5-methyl-pyrazin-2-ylmethyl)-2H-indazol-6-ylmethoxy]-phenyl}-hex-4-ynoic acid] | ≥ 0.5 |
| CC#C[C@@H](CC(=O)O)c1ccc(OCc2ccc3cnn(Cc4ccncn4)c3c2)cc1 [Example 75, (S)-3-[4-(1-pyrimidin-4-ylmethyl-1H-indazol-6-ylmethoxy)-phenyl]-hex-4-ynoic acid] | 0.05 to 0.5 |
| CC#C[C@@H](CC(=O)O)c1ccc(OCc2ccc3cn(Cc4ccncn4)nc3c2)cc1 [Example 76, (S)-3-[4-(2-pyrimidin-4-ylmethyl-2H-indazol-6-ylmethoxy]-phenyl}-hex-4-ynoic acid] | ≥ 0.5 |
| CC#C[C@@H](CC(=O)O)c1ccc(OCc2cccc3nn(Cc4cnc(C)cn4)cc23)cc1 [Example 78, (S)-3-{4-[2-(5-methyl-pyrazin-2-ylmethyl)-2H-indazol-4-ylmethoxy]-phenyl}-hex-4-ynoic acid] | 0.05 to 0.5 |
| CC#C[C@@H](CC(=O)O)c1ccc(OCc2ccc3cn(Cc4cccnc4)nc3c2)cc1 [Example 80, (S)-3-[4-(2-pyridin-3-ylmethyl-2H-indazol-6-ylmethoxy)-phenyl]-hex-4-ynoic acid] | ≥ 0.5 |
| CC#C[C@@H](CC(=O)O)c1ccc(OCc2ccc3cnn(Cc4cnn(C)c4)c3c2)cc1 [Example 82, (S)-3-{4-[1-(1-methyl-1H-pyrazol-4-ylmethyl)-1H-indazol-6-ylmethoxy]-phenyl}-hex-4-ynoic acid] | 0.05 to 0.5 |
| Cc1c(COc2ccc([C@H](CC(=O)O)c3ccon3)cc2)ccc2ccn(Cc3ccc(F)cc3)c12 [Example 84, (S)-3-{4-[1-(4-fluoro-benzyl)-7-methyl-1H-indol-6-ylmethoxy]-phenyl}-3-isoxazol-3-yl-propanoic acid] | 0.05 |
| CC(C)Cn1cc2ccc(COc3ccc([C@H](CC(=O)O)c4ccon4)cc3)cc2n1 [Example 88, (S)-3-[4-(2-isobutyl-2H-indazol-6-ylmethoxy)-phenyl]-3-isoxazol-3-yl-propanoic acid] | 0.4 |
| CC#C[C@@H](CC(=O)O)c1ccc(OCc2ccc3cnn(Cc4ccc(C)nc4)c3c2)cc1 [Example 93, (S)-3-{4-[1-(6-methyl-pyridin-3-ylmethyl)-1H-indazol-6-ylmethoxy]-phenyl}-hex-4-ynoic acid] | 0.05 to 0.5 |
| O=C(O)C[C@@H](c1ccc(OCc2cccc3c2cnn3Cc2ccccc2)cc1)c1ccon1 [Example 94, (S)-3-[4-(1-benzyl-1H-indazol-4-ylmethoxy)-phenyl]-3-isoxazol-3-yl-propanoic acid] | 0.06 |
| O=C(O)C[C@@H](c1ccc(OCc2ccc3ccn(Cc4ccc(F)cc4)c3n2)cc1)c1ccon1 [Example 95, (S)-3-{4-[1-(4-fluoro-benzyl)-1H-pyrrolo[2,3-b]pyridin-6-ylmethoxy]-phenyl}-3-isoxazol-3-yl-propanoic acid] | 0.1 |

Next, values leading:

| EC50 [µM] | Compound |
| --- | --- |
| 0.05 | O=C(O)CC(C1=NOCC1)c1ccc(OCc2ccc3cnn(Cc4ccccc4)c3c2)cc1 (centres unmarked) [Example 65, 3-[4-(1-benzyl-1H-indazol-6-ylmethoxy)-phenyl]-3-(4,5-dihydro-isoxazol-3-yl)-propanoic acid] |
| 0.01 | CC#C[C@@H](CC(=O)O)c1ccc(OCc2ccc3cnn(Cc4ccc(F)cc4)c3c2)cc1 [Example 66, (S)-3-{4-[1-(4-fluoro-benzyl)-1H-indazol-6-ylmethoxy]-phenyl}-hex-4-ynoic acid] |
| 0.02 | CC#C[C@@H](CC(=O)O)c1ccc(OCc2cccc3c2cnn3Cc2ccc(F)cc2)cc1 [Example 71, (S)-3-{4-[1-(4-fluoro-benzyl)-1H-indazol-4-ylmethoxy]-phenyl}-hex-4-ynoic acid] |
| 0.03 | CC#C[C@@H](CC(=O)O)c1ccc(OCc2cccc3nn(Cc4ccc(F)cc4)cc23)cc1 [Example 72, (S)-3-{4-[2-(4-fluoro-benzyl)-2H-indazol-4-ylmethoxy]-phenyl}-hex-4-ynoic acid] |
| 0.001 to 0.05 | CC#C[C@@H](CC(=O)O)c1ccc(OCc2ccc3cnn(Cc4cccnc4)c3c2)cc1 [Example 79, (S)-3-[4-(1-pyridin-3-ylmethyl-1H-indazol-6-ylmethoxy)-phenyl]-hex-4-ynoic acid] |
| 0.001 to 0.05 | CC#C[C@@H](CC(=O)O)c1ccc(OCc2ccc3ccn(Cc4ccc(C)nc4)c3c2C)cc1 [Example 81, (S)-3-{4-[7-methyl-1-(6-methyl-pyridin-3-ylmethyl)-1H-indol-6-ylmethoxy]-phenyl}-hex-4-ynoic acid] |
| 0.01 | Cc1c(COc2ccc([C@H](CC(=O)O)c3ccon3)cc2)ccc2ccn(Cc3ccccc3)c12 [Example 83, (S)-3-[4-(1-benzyl-7-methyl-1H-indol-6-ylmethoxy)-phenyl]-3-isoxazol-3-yl-propanoic acid] |
| 0.01 | O=C(O)C[C@@H](c1ccc(OCc2ccc3cnn(Cc4ccccc4)c3c2)cc1)c1ccon1 [Example 85, (S)-3-[4-(1-benzyl-1H-indazol-6-ylmethoxy)-phenyl]-3-isoxazol-3-yl-propanoic acid] |
| 0.01 | O=C(O)C[C@@H](c1ccc(OCc2ccc3cnn(Cc4ccc(F)cc4)c3c2)cc1)c1ccon1 [Example 86, (S)-3-{4-[1-(4-fluoro-benzyl)-1H-indazol-6-ylmethoxy]-phenyl}-3-isoxazol-3-yl-propanoic acid] |
| 0.01 | CC(C)Cn1ncc2ccc(COc3ccc([C@H](CC(=O)O)c4ccon4)cc3)cc21 [Example 87, (S)-3-[4-(1-isobutyl-1H-indazol-6-ylmethoxy)-phenyl]-3-isoxazol-3-yl-propanoic acid] |
| 0.03 | Cc1c(COc2ccc([C@H](CC(=O)O)c3ccon3)cc2)ccc2ccn(Cc3cnccn3)c12 [Example 89, (S)-3-isoxazol-3-yl-3-[4-(7-methyl-1-pyrazin-2-ylmethyl-1H-indol-6-ylmethoxy)-phenyl]-propanoic acid] |
| 0.01 | CC#C[C@@H](CC(=O)O)c1ccc(OCc2ccc3ccn(Cc4ccccc4)c3n2)cc1 [Example 90, (S)-3-[4-(1-benzyl-1H-pyrrolo[2,3-b]pyridin-6-ylmethoxy)-phenyl]-hex-4-ynoic acid] |
| 0.03 | O=C(O)C[C@@H](c1ccc(OCc2ccc3ccn(Cc4ccccc4)c3n2)cc1)c1ccon1 [Example 91, (S)-3-[4-(1-benzyl-1H-pyrrolo[2,3-b]pyridin-6-ylmethoxy)-phenyl]-3-isoxazol-3-yl-propanoic acid] |
| 0.001 to 0.05 | Cc1cnc(Cn2ccc3ccc(COc4ccc([C@H](CC(=O)O)c5ccon5)cc4)c(C)c32)cn1 [Example 92, (S)-3-isoxazol-3-yl-3-{4-[7-methyl-1-(5-methyl-pyrazin-2-ylmethyl)-1H-indol-6-ylmethoxy]-phenyl}-propanoic acid] |
| 0.03 | CC(C)n1ncc2ccc(COc3ccc([C@H](CC(=O)O)c4ccon4)cc3)cc21 [Example 96, (S)-3-[4-(1-isopropyl-1H-indazol-6-ylmethoxy)-phenyl]-3-isoxazol-3-yl-propanoic acid] |
